Laboratory results taken from US8853219B2, “Compounds and compositions for cognition-enhancement, methods of making, and methods of treating” (NeuroSolis, Inc., priority 2010, dated 2014).
Positions count from the first letter of the chain named. Where two headings read alike, the source gives them in different places.

Columns and labels:
[1] = system: pooled male human liver microsomes; assay: Metabolism by human liver microsomes; format: in vitro ADME; conditions: for Metabolism in human liver microsomes: 6 hours incubation; for Rate of metabolism, S- versus R-enantiomer: human liver microsomes, as also in rat liver microsomes and FMO Supersomes
Protocol: Compounds were incubated with pooled male human liver microsomes (BD Biosciences, #452172) and an NADP-regenerating system in a phosphate buffer (pH 7.4) for a total of 6 hours. Aliquots were removed every 2 hours, and 1% formic acid was added to halt the reaction. Samples were centrifuged, filtered through 0.2 micron spinfilter and the amount of each compound in the supernatants was quantitated using LC/MS/MS.

[2] = target: T1, human muscarinic M3 receptors (Homo sapiens, UniProt P20309); assay: Stimulation of inositol phosphate production in A9L cells, human M3 (IPOne TR-FRET); format: cell-based; conditions: for huM3/A9L Smax: percentage of maximal stimulation by carbachol
T1 construct: host or cells: A9L cells
T1 sequence (P20309 whole entry): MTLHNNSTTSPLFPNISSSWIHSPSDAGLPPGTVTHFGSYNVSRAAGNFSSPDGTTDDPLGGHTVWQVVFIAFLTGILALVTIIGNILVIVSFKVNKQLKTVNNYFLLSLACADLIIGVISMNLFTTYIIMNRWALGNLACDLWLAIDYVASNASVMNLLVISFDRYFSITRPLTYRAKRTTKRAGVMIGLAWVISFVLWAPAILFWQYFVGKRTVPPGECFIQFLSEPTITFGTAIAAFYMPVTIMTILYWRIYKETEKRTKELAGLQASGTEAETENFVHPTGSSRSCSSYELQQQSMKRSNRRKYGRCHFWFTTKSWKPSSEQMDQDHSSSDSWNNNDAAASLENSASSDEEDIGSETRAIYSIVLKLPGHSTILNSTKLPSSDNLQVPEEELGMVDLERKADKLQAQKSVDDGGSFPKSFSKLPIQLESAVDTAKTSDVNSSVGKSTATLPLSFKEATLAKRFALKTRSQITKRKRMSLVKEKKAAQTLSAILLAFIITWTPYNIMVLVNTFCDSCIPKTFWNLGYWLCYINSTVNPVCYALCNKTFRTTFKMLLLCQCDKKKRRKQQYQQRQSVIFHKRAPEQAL
Protocol: (§1) Muscarinic M1 and M3 agonist activity was evaluated by measuring the stimulation of inositol phosphate (IP) production in the presence of lithium chloride from A9L cells transfected with expression plasmids containing human muscarinic M1 and M3 receptors, respectively. The cell lines were a gift from Professor W Messer, and the methods were as described in Tejada F R et al. J. Med. Chem. 2006; 49: 7518-31 except that the assay was scaled down to run in 384 well plates, and IP was measured in the cell lysates using the non-isotopic IPOne TR-FRET assay (CIS-BIO, Inc).
(§2) Cells were grown to 90% confluence in 384 well hi-base plates (Greiner Bio-One), compounds were added at suitable concentrations in growth medium containing 10 mM LiCL, buffered with an extra 10 mM HEPES (pH7.4), and incubated for 60 minutes at 37° C. Cells were lysed and assayed for IP following the manufacturer's instructions.
(§3) The value for a full agonist is 100%, while partial agonists give values below 100%.

[3] = target: T2, human muscarinic M1 receptors (Homo sapiens, UniProt P11229); assay: Stimulation of inositol phosphate production in A9L cells, human M1 (IPOne TR-FRET); format: cell-based; conditions: for huM1/A9L Smax: percentage of maximal stimulation by carbachol
T2 construct: host or cells: A9L cells
T2 sequence (P11229 1-460): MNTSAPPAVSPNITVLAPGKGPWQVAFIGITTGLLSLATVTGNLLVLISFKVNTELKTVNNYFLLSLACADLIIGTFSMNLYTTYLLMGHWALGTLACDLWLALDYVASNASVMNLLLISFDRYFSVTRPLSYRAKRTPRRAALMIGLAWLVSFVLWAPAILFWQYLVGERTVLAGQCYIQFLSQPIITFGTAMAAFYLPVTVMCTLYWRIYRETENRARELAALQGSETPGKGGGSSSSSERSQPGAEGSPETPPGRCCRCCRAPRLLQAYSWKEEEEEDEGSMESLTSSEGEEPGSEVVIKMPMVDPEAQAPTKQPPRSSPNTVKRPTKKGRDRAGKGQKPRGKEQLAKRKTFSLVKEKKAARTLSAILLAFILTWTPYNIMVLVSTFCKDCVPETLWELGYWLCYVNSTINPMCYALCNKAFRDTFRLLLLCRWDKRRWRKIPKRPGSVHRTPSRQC
Protocol: as §1, §2, §3

[4] = Blood and brain concentrations (rats) after oral gavage; format: in vivo, rat; conditions: for Brain Cmax (10 mg/kg po) 1 hr MCD-386 = 1.00: rat brain, relative to MCD-386; for Penetration into the brain: rats after oral dosing
Protocol: Long-Evans Hooded rats (Charles River: male, 250-350 g) were dosed with solutions of test compounds in PBS by oral gavage. At the desired time after dosing, the animals were anesthetized with isoflurane, and then euthanized by cervical dislocation. Blood was obtained by cardiac puncture, transferred to a 1.5 mL microcentrifuge tube containing 15U Heparin, and the plasma recovered after centrifugation. Brains were dissected, weighed, immediately chilled to 4° C., and homogenized using a PowerGen 125 homogenizer in five volumes of ice-cold 2% formic acid. Proteins were precipitated from plasma and brain homogenate with two and five volumes respectively of ice-cold 2% formic acid and clarified by centrifugation. The supernatant was ultra-filtered by centrifugation through a 3K MWCO spin column (Pall Life Sciences), following the manufacturer's instructions. The concentration of compound in the ultra-filtrate was subjected to reverse-phase liquid chromatography using a 150×2.1 mm Agilent C8 reverse-phase column on a Shimadzu Prominence LC, eluting the compounds with a gradient of 2% to 50% of acetonitrile+0.1% formic acid for compound MI-50,382, or an isocratic flow of 2% acetonitrile+0.1% formic acid for the rest of the compounds listed. The concentration of the compound in the column effluent was measured using an Applied Biosystems API-3200 triple quadrupole mass spectrometer equipped with an electrospray sample injection system. The counts of the characteristic parent and product ions of each test compound were converted to concentration units by comparison with a standard calibration curve.

rat M1 receptors = target: T3, rat M1 receptors (Rattus norvegicus, UniProt P08482); assay: PI turnover (inositol phosphate production) in M1-CHO cells; format: cell-based; conditions: M1 versus M3 cell lines
T3 construct: host or cells: Chinese Hamster Ovary cells (M1-CHO)
T3 sequence (P08482 1-460): T2 sequence (P11229 1-460) with A5V, T254S, P309S, R320K, A337G, I413V
Protocol: The medium was changed to 70 μL/well of inositol-free DMEM containing 2 mM glutamine, 10% FBS and 10 μCi/ml of [3H]-inositol (PE:cat #NET114A250UC), incubated overnight as above, then 100 μL of a solution of the test compound in HBSS containing 10 mM LiCl and 20 mM HEPES, pH 7.4 was added, incubation was continued for 60 min under the above conditions, and the test was stopped by removing the test compound and replacing with 100 μL of 50 mM formic acid in water at 4° C.

Structure (SMILES)	huM3/A9L ED50 relative to CCh [2]	huM1/A9L ED50 relative to CCh [3]	huM3/A9L Smax [2] [%]	huM1/A9L Smax [3] [%]	also measured
Cc1noc([C@H]2CCCNC2)n1 [Compound 3a, S-(+)-3-methyl-5-(piperidin-3-yl)-1,2,4-oxadiazole]	+/− (key: ++: potency > 10x CCh; +: potency 2-10x CCh; +/−: potency 0.5-2x CCh; −: potency < 0.5-0.1x CCh; −−: potency < 0.1x CCh; inactive: potency too low to determine)	+ (key: ++: potency > 10x CCh; +: potency 2-10x CCh; +/−: potency 0.5-2x CCh; −: potency < 0.5-0.1x CCh; −−: potency < 0.1x CCh; inactive: potency too low to determine)			Metabolism in human liver microsomes [1]: metabolized significantly less in human liver microsomes than in rat liver microsomes; Rate of metabolism, S- versus R-enantiomer [1]: metabolized faster than the R-enantiomers
Cc1noc([C@@H]2CCCNC2)n1 [Compound 3b, R-(−)-3-methyl-5-(piperidin-3-yl)-1,2,4-oxadiazole]	− (key: ++: potency > 10x CCh; +: potency 2-10x CCh; +/−: potency 0.5-2x CCh; −: potency < 0.5-0.1x CCh; −−: potency < 0.1x CCh; inactive: potency too low to determine)	+/− (key: ++: potency > 10x CCh; +: potency 2-10x CCh; +/−: potency 0.5-2x CCh; −: potency < 0.5-0.1x CCh; −−: potency < 0.1x CCh; inactive: potency too low to determine)			Metabolism in human liver microsomes [1]: metabolized significantly less in human liver microsomes than in rat liver microsomes
[2H]C([2H])([2H])c1noc([C@H]2CCCNC2)n1 [Compound 7a, S-(+)-3-D3-methyl-5-(piperidin-3-yl)-1,2,4-oxadiazole]	−− (key: ++: potency > 10x CCh; +: potency 2-10x CCh; +/−: potency 0.5-2x CCh; −: potency < 0.5-0.1x CCh; −−: potency < 0.1x CCh; inactive: potency too low to determine)	+/− (key: ++: potency > 10x CCh; +: potency 2-10x CCh; +/−: potency 0.5-2x CCh; −: potency < 0.5-0.1x CCh; −−: potency < 0.1x CCh; inactive: potency too low to determine)			Metabolism in human liver microsomes [1]: metabolized significantly less in human liver microsomes than in rat liver microsomes; Rate of metabolism, S- versus R-enantiomer [1]: metabolized faster than the R-enantiomers
[2H]C([2H])([2H])c1noc([C@@H]2CCCNC2)n1 [Compound 7b, R-(−)-3-D3-methyl-5-(piperidin-3-yl)-1,2,4-oxadiazole]	+/− (key: ++: potency > 10x CCh; +: potency 2-10x CCh; +/−: potency 0.5-2x CCh; −: potency < 0.5-0.1x CCh; −−: potency < 0.1x CCh; inactive: potency too low to determine)	+ (key: ++: potency > 10x CCh; +: potency 2-10x CCh; +/−: potency 0.5-2x CCh; −: potency < 0.5-0.1x CCh; −−: potency < 0.1x CCh; inactive: potency too low to determine)			Metabolism in human liver microsomes [1]: metabolized significantly less in human liver microsomes than in rat liver microsomes
Cc1nsc(C2CCCNC2)n1.Cl (stereo not drawn) [Compound 12a, 3-methyl-5-(piperidin-3-yl)-1,2,4-thiadiazole hydrochloride]	+ (key: ++: potency > 10x CCh; +: potency 2-10x CCh; +/−: potency 0.5-2x CCh; −: potency < 0.5-0.1x CCh; −−: potency < 0.1x CCh; inactive: potency too low to determine)	+ (key: ++: potency > 10x CCh; +: potency 2-10x CCh; +/−: potency 0.5-2x CCh; −: potency < 0.5-0.1x CCh; −−: potency < 0.1x CCh; inactive: potency too low to determine)			
c1nsc(C2CCCNC2)n1 (stereo not drawn) [Compound 12b, 5-(piperidin-3-yl)-1,2,4-thiadiazole]	−− (key: ++: potency > 10x CCh; +: potency 2-10x CCh; +/−: potency 0.5-2x CCh; −: potency < 0.5-0.1x CCh; −−: potency < 0.1x CCh; inactive: potency too low to determine)	− (key: ++: potency > 10x CCh; +: potency 2-10x CCh; +/−: potency 0.5-2x CCh; −: potency < 0.5-0.1x CCh; −−: potency < 0.1x CCh; inactive: potency too low to determine)			
Cc1noc([C@H]2CCCN[C@@H]2C)n1 [Compound 19]			34	15	
Cc1noc([C@H]2CCCN[C@@H]2C)n1 [Compound 20]				9	
Cc1noc([C@H]2CCCN[C@@H]2C)n1 [Compound 21]			14	18	
Cc1noc([C@H]2CCCN[C@@H]2C)n1 [Compound 22]			15	7	
Cc1noc([C@H]2CCCN[C@@H]2C)n1 [Compound 23]			19	23	
Cc1noc([C@H]2CCCN[C@@H]2C)n1 [Compound 24]		−− (key: ++: potency > 10x CCh; +: potency 2-10x CCh; +/−: potency 0.5-2x CCh; −: potency < 0.5-0.1x CCh; −−: potency < 0.1x CCh; inactive: potency too low to determine)	32	41	
Nc1noc(C2CCCNC2)n1 (stereo not drawn) [Compound 27, 3-Amino-5-(piperidin-3-yl)-1,2,4-oxadiazole]	+/− (key: ++: potency > 10x CCh; +: potency 2-10x CCh; +/−: potency 0.5-2x CCh; −: potency < 0.5-0.1x CCh; −−: potency < 0.1x CCh; inactive: potency too low to determine)	+ (key: ++: potency > 10x CCh; +: potency 2-10x CCh; +/−: potency 0.5-2x CCh; −: potency < 0.5-0.1x CCh; −−: potency < 0.1x CCh; inactive: potency too low to determine)			
Cc1noc(C2CCNC2)n1 (stereo not drawn) [Compound 31, 3-methyl-5-(pyrrolidin-3-yl)-1,2,4-oxadiazole]					huM3/A9L ED50 relative to CCh ([2]; potency class relative to carbachol): − (potency < 0.5-0.1x CCh)
Cl.[2H]C([2H])([2H])C([2H])([2H])c1noc(C2CN=CNC2)n1 (stereo not drawn) [compound 2, 3-(1,1,2,2,2-d5-ethyl)-5-(1,4,5,6-tetrahydropyrimidin-5-yl)-1,2,4-oxadiazole hydrochloride]					Brain Cmax (10 mg/kg po) 1 hr MCD-386 = 1.00 [4]: 0.61; Penetration into the brain [4]: penetrated into the brain; Functional selectivity for M1 subtype by PI turnover (rat M1 receptors): M1-subtype functionally selective muscarinic agonists
Cl.[2H]C([2H])(C)c1noc(C2CN=CNC2)n1 (stereo not drawn) [compound 6, 3-(1,1-d2-ethyl)-5-(1,4,5,6-tetrahydropyrimidin-5-yl)-1,2,4-oxadiazole hydrochloride]					Brain Cmax (10 mg/kg po) 1 hr MCD-386 = 1.00 [4]: 0.82; Penetration into the brain [4]: penetrated into the brain; Functional selectivity for M1 subtype by PI turnover (rat M1 receptors): M1-subtype functionally selective muscarinic agonists
